Measured values reported in article PMC7697948, “Deciphering Novel Antimicrobial Peptides from the Transcriptome of Papilio xuthus” (Insects, 2020).

Legend:
[1] = system: Gram-positive and Gram-negative bacteria; conditions: effect more pronounced in Gram-negative strains; cited from earlier work
From the text: (§1) Papilio xuthus (P. xuthus), commonly known as the swallowtail butterfly, is found in the far east Asian regions of Korea, Japan, China, Taiwan, and Myanmar. Papiliocin is the 37 residue α-helical cecropin-like AMP isolated from an immune challenged larvae of swallowtail butterfly. […] Additionally, the antibacterial and antifungal activity of papiliocin is observed in multidrug- resistant bacterial and fungal strains, respective ...

[2] = system: mammalian cells; conditions: cited from earlier work
From the text: as §1

[3] = cited from earlier work
From the text: as §1

[4] = system: mouse erythrocytes; assay: Hemolytic assay; format: cell-based; conditions: 12.5 μg/mL; 2.5% (v/v) mouse erythrocytes in PBS, 30 min at 37 °C, absorbance at 540 nm; at least three independent experiments in triplicate
Protocol: This experiment was approved by the Institutional Animal Care and Use Committee (IACUC) of the National Institute of Agricultural Sciences (approval number: NAS-202014). The hemolytic activity of the peptides was determined by monitoring the release of hemoglobin from mouse erythrocytes at 540 nm. For the hemolytic assay, 20 μL of each peptide solution at a predetermined concentration was added to 180 μL of a 2.5% (v/v) suspension of mouse erythrocytes in phosphate-buffered saline (PBS). Melittin (Sigma, USA), a hemolytic and α-helical peptide isolated from bee venom, was used as the positive control. This mixture was incubated for 30 min at 37 °C, and 600 μL of PBS was then added to each tube. After 3 min of centrifugation at 10,000× g, the supernatant was removed, and the absorbance was measured at 540 nm. Evaluations were made from the results of at least three independent experiments, each carried out in triplicate.

Molecule | bactericidal activity [1] | toxicity toward mammalian cells [2] | anti-inflammatory activity [3] | hemolysis of mouse red blood cells [4] [%]
Papiliocin | bactericidal activity against both Gram-positive and Gram-negative bacteria | non-toxicity toward mammalian cells | anti-inflammatory activity | –
CC[C@H](C)[C@H](NC(=O)CN)C(=O)NCC(=O)N[C@@H](C)C(=O)N[C@H](C(=O)N[C@@H](CC(C)C)C(=O)N[C@@H](CCCCN)C(=O)N[C@H](C(=O)N[C@@H](CC(C)C)C(=O)N[C@H](C(=O)N[C@H](C(=O)NCC(=O)N[C@@H](CC(C)C)C(=O)N1CCC[C@H]1C(=O)N[C@@H](C)C(=O)N[C@@H](CC(C)C)C(=O)N[C@H](C(=O)N[C@@H](CO)C(=O)N[C@@H](Cc1c[nH]c2ccccc12)C(=O)N[C@H](C(=O)N[C@@H](CCCCN)C(=O)N[C@@H](CCCNC(=N)N)C(=O)N[C@@H](CCCCN)C(=O)N[C@@H](CCCNC(=N)N)C(=O)N[C@@H](CCC(N)=O)C(=O)N[C@@H](CCC(N)=O)C(N)=O)[C@@H](C)CC)[C@@H](C)CC)[C@@H](C)O)[C@@H](C)O)C(C)C)C(C)C [Melittin] | – | – | – | 92
